Measured values as given in ChEMBL document CHEMBL4808223, “Design, synthesis and biological activity of bis-sulfonyl-BODIPY probes for tumor cell imaging” (Bioorg Med Chem Lett, 2021).

Columns and labels:
HCT-116 = assay: Cytotoxicity against human HCT-116 cells by MTT assay; type: functional, cell-based
HeLa [1] = assay: Cytotoxicity against human HeLa cells by MTT assay; type: functional, cell-based
L02 = assay: Cytotoxicity against human L02 cells by MTT assay; type: cell-based
[2] = Drug uptake in human HeLa cells assessed as increase in fluorescence intensity at 10 uM incubated for 24 hrs by DAPI staining based confocal microscopic analysis; type: ADME, cell-based
[3] = Drug uptake in tumor of mouse xenografted with human HeLa cells administered intraperitoneally and measured after 30 mins by fluorescence imaging analysis; type: ADME, tissue-based, Neoplasm; details: in vivo, ip, 0.5 h
HeLa [4] = assay: Induction of apoptosis in human HeLa cells assessed as early apoptotic cells measured after 12 hrs by Annexin-V-FITC/propidium iodide staining based flow cytometry; type: functional
HeLa [5] = assay: Induction of apoptosis in human HeLa cells assessed as late apoptotic cells measured after 12 hrs by Annexin-V-FITC/propidium iodide staining based flow cytometry; type: functional
HeLa [6] = assay: Induction of apoptosis in human HeLa cells assessed as necrotic cells measured after 12 hrs by Annexin-V-FITC/propidium iodide staining based flow cytometry; type: functional
HeLa [7] = assay: Induction of apoptosis in human HeLa cells assessed as viable cells measured after 12 hrs by Annexin-V-FITC/propidium iodide staining based flow cytometry; type: functional

| Drug uptake [2] | Drug uptake [3] | SMILES | IC50 (HCT-116) [µM] | IC50 (HeLa [1]) [µM] | IC50 (L02) [µM] | Activity (HeLa [4]) [%] | Activity (HeLa [5]) [%] | Activity (HeLa [6]) [%] | Activity (HeLa [7]) [%] |
| --- | --- | --- | --- | --- | --- | --- | --- | --- | --- |
| Active | – | CCC1=C(C)C2=C(c3ccccc3)c3ccc(NCCNCC(=O)c4ccc(OS(C)(=O)=O)cc4OS(C)(=O)=O)n3[B-](F)(F)[N+]2=C1C | 101 | 95.5 | 41.7 | – | – | – | – |
| Active | – | CCC1=C(C)C2=C(c3ccccc3)c3ccc(NCCN)n3[B-](F)(F)[N+]2=C1C | – | – | – | – | – | – | – |
| Active | Active | CCC1=C(C)C2=C(c3ccccc3)c3ccc(NCCNCC(=O)c4ccc(OS(=O)(=O)c5ccccc5)cc4OS(=O)(=O)c4ccccc4)n3[B-](F)(F)[N+]2=C1C | 93.1 | 89.1 | 53.3 | 0.24 | 2.46 | 0.91 | 96.38 |
